In patent publication US5532231A, “Antibacterial agent” (priority 1994, dated 1996):

Assays:
[1] = tested on: Mycobacteria smegmatis; experiment: Antimicrobial spectrum, liquid media, viable cell count; type: cell-based, Mycobacterium smegmatis; settings: saturating concentrations
Procedure: (§1) Saturated solutions of TA and Focusin were prepared by adding 1.14 μg TA and 7 μg Focusin to 1 ml LB (final conc. of 1% ethanol). About 10^5 bacteria of various strains were then added. The control was bacteria in the same medium with no antibacterial agents. The bacteria were introduced at 37° C. with shaking at 100 rpm. When the control became turbid, viable cell count was performed on LB agar plates. Growth inhibition is presented as percentage of the no antibiotic control.

[2] = tested on: E. coli K-12; experiment: as above; type: cell-based, Escherichia coli; settings: saturating concentrations
Procedure: as §1

[3] = tested on: E. coli ESS; experiment: as above; type: cell-based, Escherichia coli; settings: saturating concentrations
Procedure: as §1

[4] = tested on: severe gingivitis and plaque; settings: humans; cited from earlier work
[5] = tested on: Staphylococcus aureas; experiment: Antimicrobial spectrum, liquid media, viable cell count; type: cell-based, Staphylococcus aureus; settings: saturating concentrations
Procedure: as §1

[6] = tested on: E. coli ESS Kan^r; experiment: Paper disc filter antibiotic assay (zone of inhibition); type: cell-based, Escherichia coli; settings: paper disc
Procedure: Escherichia coli ESS Kan^r, is a kanamycin resistant strain of E. coli ESS, derived by transducing E. coli ESS with P1:TnV, Kan^r. This strain was used for the standard antibiotic assays.
LB Kan medium was solidified by 1.5% Bacto agar (Difco). For the antibiotic assay, Nutrient Broth agar plates were used. NB medium is 0.8% Nutrient Broth (Difco) containing 0.5% NaCl (Merck). NB was solidified by 1.8% Bacto agar (Difco). The NB plates were overlaid by 3.5 ml NB soft agar (0.9% Bacto agar) mixed with 0.1 ml E. coli ESS Kan^r overnight culture.
(§2) Antibiotic activity against E. coli ESS Kan^r was determined by the paper disc filter assay (Leo et al., 1945). Unknown quantities of antibiotic TA or Focusin, dissolved in ethanol, saline or NB were applied to paper disc filters (6 mm diameter; Schleicher and Schull). After allowing the ethanol to evaporate in the hood for about 15 mins, the dry filters were placed on nutrient broth plates which had been overlaid with an overnight culture of E. coli ESS Kan^r as described above.
(§3) The diameter of the zone of inhibition was recorded after 18 hours in incubation at 37° C. The concentration of the antibacterial agents were determined from a standard inhibition curve prepared with known quantities of TA and Focusin.

[7] = tested on: Gram-positive and Gram-negative bacteria; settings: literature; cited from earlier work
[8] = tested on: E. coli ESS Kan^r; experiment: Sensitivity to combined exposure to light and air (remaining activity by paper disc bioassay); type: physicochemical, Escherichia coli
Procedure: as §2, §3
100 ng of TA and Focusin dissolved in ethanol were applied to paper filters and allowed to dry in a hood for 15 mins. The filters were then exposed to light from a fluorescent lamp in the hood; the distance from the lamp to the filters was approximately 40 cm. The controls were placed in the dark under a plastic box within the hood.
After exposure of the filters to the light for varying periods of time, the remaining activity of the agents was measured by the paper disc bioassay and the results are shown in the following Table 1: […]

[9] = tested on: E. coli ESS; experiment: Bactericidal effect when bound to mouse tissues; type: cell-based, Escherichia coli; settings: 4 μg TA or 20 μg Focusin, 5 h
Procedure: Two mice were sacrificed by exposure to ether. The bladder, eyes, intestines, lungs, heart, teeth, liver, spleen and kidneys were removed by dissection. Each experimental set consisted of three test tubes. A piece of each tissue type was placed in each of the three test tubes. The amount of tissue per tube were as follows: bladder 1/3, eye 1/2, intestine 1 cm, lung 1/2, heart 1/3, fang tooth 1/2, liver 1/3, spleen 1/3 and kidney 1/2. One test tube contained a control tissue which was treated only with the solvent used for dissolving the antibacterial agent, usually 50% ethanol. The second and third test tubes contained tissues were treated with 4 μg TA or 20 μg Focusin, respectively.
Following application of the antibacterial agent or the control solution, the tissues were allowed to dry in a hood for 30 mins., and then placed in the test tubes.
One milliliter of sterile saline was then added to each test tube and the tubes were then incubated with shaking (50 rpm) at 37° C. for one hour. The amount of antibacterial agent that was released to the saline was measured following chloroform extraction by the disc filter assay.
The tissues were then transferred to exponentially growing cultures of E. coli ESS in NB at a concentration of 10^5 cells/ml. Incubation was at 37° C. and continued for 5 hours, following which the number of viable cells was checked.

[10] = tested on: Salmonella thyphimurium; experiment: Antimicrobial spectrum, liquid media, viable cell count; type: cell-based; settings: saturating concentrations
Procedure: as §1

[11] = tested on: Klebsiella sp; experiment: as above; type: cell-based; settings: saturating concentrations; hospital strain
Procedure: as §1

[12] = tested on: Helicobacter pilori; experiment: as above; type: cell-based; settings: saturating concentrations
Procedure: as §1

[13] = tested on: Enterobacter; experiment: as above; type: cell-based; settings: saturating concentrations
Procedure: as §1

[14] = tested on: Erwinia herbicola; experiment: as above; type: cell-based; settings: saturating concentrations
Procedure: as §1

[15] = tested on: Serratia marcescens; experiment: as above; type: cell-based; settings: saturating concentrations
Procedure: as §1

[16] = tested on: Proteus vulgaris; experiment: as above; type: cell-based; settings: saturating concentrations
Procedure: as §1

[17] = tested on: Klebsiella pneumoniae; experiment: as above; type: cell-based; settings: saturating concentrations; hospital strain
Procedure: as §1

[18] = tested on: Pseudomonas aeruginosa; experiment: as above; type: cell-based; settings: saturating concentrations
Procedure: as §1

[19] = tested on: Staphylococcus albus; experiment: as above; type: cell-based
Procedure: as §1

[20] = tested on: Providencia strautii; experiment: as above; type: cell-based; settings: saturating concentrations
Procedure: as §1

[21] = tested on: Klebsiella Gr47; experiment: as above; type: cell-based; settings: saturating concentrations; hospital strain
Procedure: as §1

[22] = tested on: Bacillus subtilis; experiment: as above; type: cell-based; settings: saturating concentrations
Procedure: as §1

[23] = tested on: Citrobacter diversus; experiment: as above; type: cell-based; settings: saturating concentrations
Procedure: as §1

[24] = type: physicochemical
Procedure: Focusin and TA at concentrations of 3 mg/ml were diluted either in ethanol or in saline containing 1% ethanol to yield a final concentration in each case of 30 μg/ml. The solutions were mixed at 37° C. for one hour under shaking, and then were centrifuged at 5000 g for 10 minutes. Several samples were taken from the supernatants of the tubes and were applied on disc filters in order to determine the concentration of the antibacterial agents in the saline and ethanol solutions, by the paper disc bioassay method.

CCCC1OC(=O)C(C)CC(C)CCCCC(=O)CCCC(CC)C=CC=C(COC)CCC(O)C(O)CC(O)CNC1=O (stereo not drawn) [TA, reference compound]
killing [1]: 0% | killing [2]: 100% | killing [3]: 100% | effect on gingivitis and plaque (in words) [4]: to treat severe gingivitis and to reduce plaque in humans | killing [5]: 100% | amount giving an inhibition zone of 11 mm ([6]; zone 11 mm): 64 ng | amount required to obtain a zone of inhibition of about 2 mm ([6]; zone about 2 mm): 7.5 ng | growth inhibition (in words) [7]: capable of inhibiting growth of a variety of Gram-positive and Gram-negative bacteria | mode of growth inhibition (in words) [7]: lysis of growing bacteria as a result of blocking of cell wall synthesis | activity after exposure to light and air ([8]; 0 hours): 100% | activity after exposure to light and air ([8]; 1 hour): 70% | activity after exposure to light and air ([8]; 4 hours): 63% | activity after exposure to light and air ([8]; 6 hours): 26% | activity after exposure to light and air ([8]; 8 hours): 21% | activity after exposure to light and air ([8]; 20 hours): 19% | degradation at combined exposure to light and air ([8]; after 20 hours): 81% | degradation at combined exposure to light and air ([8]; after one hour, 60 min): 30% | Inhibition % by the treated tissue ([9]; bladder): 100% | Inhibition % by the treated tissue ([9]; heart): 100% | Inhibition % by the treated tissue ([9]; intestine): 99% | Inhibition % by the treated tissue ([9]; kidney): 100% | Inhibition % by the treated tissue ([9]; liver): 96% | Inhibition % by the treated tissue ([9]; lungs): 100% | Inhibition % by the treated tissue ([9]; spleen): 100% | Inhibition % by the treated tissue ([9]; teeth): 100% | killing [10]: 60% | killing [11]: 100% | killing [12]: 100% | killing [13]: 100% | killing [14]: 100% | killing [15]: 100% | killing [16]: 100% | killing [17]: 100% | killing [18]: 0% | incubation time after which the strain began to show sensitivity ([19]; saturating concentrations): > 46 h | killing ([19]; saturating concentrations (TA)): 83% | killing [20]: 100% | killing [21]: 100% | killing [22]: 100% | killing [23]: 100% | solubility in ethanol [24]: completely soluble | solubility in saline ([24]; saline with 1% ethanol, 1 h): about 1.14 μg/ml
